The target of the first assay is T1, human PPARγ (Homo sapiens, UniProt P37231).
T1 construct: 1.6 kb of fragment of the prepared plasmid pGEMT-hPPARg2 including human PPARγ gene; expressed in transfected cells; host or cells: CV-1 cells, transient transfection with pCI-hPPARg2, pCI-hRXRa and the reporter pGL3-PPRE3-TK
T1 sequence (P37231 1-505): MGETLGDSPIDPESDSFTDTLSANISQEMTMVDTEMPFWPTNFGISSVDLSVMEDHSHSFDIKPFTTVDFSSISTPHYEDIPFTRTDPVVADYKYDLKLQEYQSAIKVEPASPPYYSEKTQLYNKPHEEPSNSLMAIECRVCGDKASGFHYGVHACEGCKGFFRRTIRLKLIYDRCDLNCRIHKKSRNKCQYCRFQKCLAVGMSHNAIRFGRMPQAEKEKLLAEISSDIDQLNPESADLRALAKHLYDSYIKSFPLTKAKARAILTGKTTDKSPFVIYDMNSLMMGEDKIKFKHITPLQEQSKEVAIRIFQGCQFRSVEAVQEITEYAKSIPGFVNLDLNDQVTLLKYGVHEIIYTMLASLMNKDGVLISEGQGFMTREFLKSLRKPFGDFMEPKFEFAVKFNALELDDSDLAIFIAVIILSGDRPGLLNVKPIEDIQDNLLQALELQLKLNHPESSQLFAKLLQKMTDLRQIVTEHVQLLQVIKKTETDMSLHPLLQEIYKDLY
T1 sequence (P19793 1-462 partner): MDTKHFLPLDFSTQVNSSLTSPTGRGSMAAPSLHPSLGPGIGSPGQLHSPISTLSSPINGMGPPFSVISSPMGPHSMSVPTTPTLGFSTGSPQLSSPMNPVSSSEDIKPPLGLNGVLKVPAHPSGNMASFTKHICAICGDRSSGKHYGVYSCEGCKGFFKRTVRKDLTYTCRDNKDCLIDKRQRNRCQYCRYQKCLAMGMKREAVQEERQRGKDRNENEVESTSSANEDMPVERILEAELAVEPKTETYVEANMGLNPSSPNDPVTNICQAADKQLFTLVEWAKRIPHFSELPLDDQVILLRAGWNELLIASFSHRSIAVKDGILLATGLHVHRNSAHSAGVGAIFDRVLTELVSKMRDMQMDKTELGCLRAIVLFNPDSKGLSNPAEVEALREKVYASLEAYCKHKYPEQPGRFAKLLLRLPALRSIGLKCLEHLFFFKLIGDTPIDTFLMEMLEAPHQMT
As to the kind of experiment: Human PPARγ antagonist assay (luciferase reporter in transfected CV-1 cells). Type of assay: cell-based. As to conditions: CV-1 cells expressing human PPARγ and RXRα with reporter plasmid; pioglitazone 1 μM as stimulant; 24 hours; read-out: Human PPARγ antagonist activities, Inhibition IC50. On the procedure: CV-1 cells (96 well plate), where human PPARγ and RXRα has expressed in the transient transfection of reporter plasmid (see reference 5a) were washed once with PBS (100 μL/well), and then supplemented with 100 μL/well […], as well as pioglitazone (not limited to pioglitazone shown as an example, but may be any PPARγ agonist) at a final concentration of 1 μM as a stimulant were added, and incubated in a 5% CO2 incubator at 37° C. for 24 hours. After removing the medium, the CV-1 cells were washed once with PBS (100 μL/well), and supplemented with 60 μL/well of 1× Passive Lysis Buffer (manufactured by Promega Corporation). The CV-1 cells were incubated at room temperature for 30 minutes, stirred, and then by using Dual-Luciferase Reporter Assay System (manufactured by Promega Corporation), luciferase activities of firefly and renilla were measured using 1420 ARVO Multilabel Counter (manufactured by Wallac Oy). Also, the same experiments as that described above were respectively carried out for the cases where only the above-mentioned stimulants (100 nM, 1 μM, 10 μM) were used, where only the above-mentioned test compounds were used, or where neither was used (nonsupplemented), and luciferase activities of firefly and renilla were measured. Values corrected by dividing the firefly luciferase activities by the renilla luciferase activities were calculated as specific activities and used for evaluations.
Human PPARγ2 antagonist activities of the test compounds were evaluated by using a percentage (inhibition) where the specific activity in case only […] was added is regarded as 0% and the specific activity in case the test compound and the stimulant were not added is regarded as 100%. Moreover, the concentration of the test compound indicating the inhibition rate of 50% was calculated as the IC50 value. Also, human PPARγ2 agonist activities of the test compounds were evaluated by using a percentage (activity) where the specific activity when nonsupplemented is regarded as 0% and the specific activity in case only 10 μM stimulant was added is regarded as 100%, from the specific activity in case only the test compound is used.
CV-1 cells were cultured in DMEM medium (manufactured by Invitrogen Corporation) including 10% fetal bovine serum (manufactured by Dainippon Pharmaceutical Co., Ltd.) in 225T-Flask (manufactured by Corning Costar). The cells were detached by 0.5 g/L trypsin-0.2 g/L EDTA (ethylene diamine tetra-acetic acid) (manufactured by Invitrogen Corporation), and then suspended in the DMEM medium including 10% fetal bovine serum to a cell concentration of 2×10^5 cells/mL. Thereafter, the cells were seeded into 96 well plate at 2×10^4 cells/0.1 mL/well, incubated in the 5% CO2 incubator at 37° C. overnight, and then the plasmids prepared by the above-mentioned reference 1a, reference 3a, and reference 4a were transfected into cells by using a lipofectamine reagent (manufactured by Invitrogen Corporation) according to the attached manual.
Namely, after CV-1 cells were cultured overnight, the cells were washed with PBS (100 μL/well). Thereafter the cells were incubated for 5 hours at 37° C./5% CO2 in the MEM medium (manufactured by Invitrogen Corporation) including 430 ng/mL of human PPARγ expression plasmid (pCI-hPPARg2) prepared by the reference 1a, 430 ng/mL of human RXRα expression plasmid (pCI-hRXRa) prepared by the reference 3a, and 140 ng/mL of the reporter plasmid (pGL3-PPRE3-TK) prepared by the reference 4a, 10 ng/mL of phRL-TK vector (manufactured by Promega Corporation) and 2 μL/mL of lipofectamine.
On the technique in general: Reporter assays use an easily measured gene product as a stand-in for the process of interest.
In general, IC50 refers to the concentration that inhibits the measured activity by half. For the compound `COc1cc(Cn2c3ccccc3c3c(OC(C)C(=O)O)cccc32)ccc1OCc1nc(-c2ccccc2)oc1C` (racemic) [Example 4, (±)-2-{9-[3-methoxy-4-((5-methyl-2-phenyl-oxazole-4-yl)methoxy)-benzyl]-9H-carbazole-4-yloxy}propionic acid], the IC50 was 939 nM. The same measure, in the same setting: to `CCC(Oc1cccc2c1c1ccccc1n2Cc1ccc(OCc2nc(-c3ccccc3)oc2C)c(OC)c1)C(=O)O` (racemic) [Example 5, (±)-2-{9-[3-methoxy-4-((5-methyl-2-phenyl-oxazole-4-yl)methoxy)-benzyl]-9H-carbazole-4-yloxy}butyric acid] belongs 353 nM.

For the compound `COc1cc(Cn2c3ccccc3c3c(OCCC(C)C(=O)O)cccc32)ccc1OCc1nc(-c2ccccc2)oc1C` (racemic) [Example 27, (±)-4-{9-[3-methoxy-4-((5-methyl-2-phenyl-oxazole-4-yl)methoxy)-benzyl]-9H-carbazole-4-yloxy}-2-methyl-butyric acid], the half-inhibitory concentration (IC50) was 688 nM. Same read-out and setting: then `COc1cc(Cn2c3ccccc3c3c(OC(C)C(=O)[O-])cccc32)ccc1OCc1nc(-c2ccccc2)oc1C.[Na+]` (racemic) [Example 30], with 983 nM; and `COc1cc(Cn2c3ccccc3c3c(OCCC(C)C(=O)[O-])cccc32)ccc1OCc1nc(-c2ccccc2)oc1C.[Na+]` (racemic) [Example 37], with 354 nM; and `COc1cc(Cn2c3ccccc3c3c(OC(C)(C)C(=O)O)cccc32)ccc1OCc1nc(-c2ccccc2)oc1C` [Example 3, 2-{9-[3-methoxy-4-((5-methyl-2-phenyl-oxazole-4-yl)methoxy)-benzyl]-9H-carbazole-4-yloxy}-2-methyl-propionic acid], with 420 nM.

Take `COc1cc(Cn2c3ccccc3c3c(OC(C)(C)C(=O)O)cccc32)ccc1OCc1nc(-c2ccco2)oc1C` [Example 7, 2-{9-[4-((2-(furan-2-yl)-5-methyl-oxazole-4-yl)methoxy)-3-methoxy-benzyl]-9H-carbazole-4-yloxy-}2-methyl-propionic acid]: the IC50 stood at 1910 nM.

Turning to `COc1cc(Cn2c3ccccc3c3c(OC(C)(C)C(=O)O)cccc32)ccc1OCc1nc(-c2cccs2)oc1C` [Example 8, 2-{9-[3-methoxy-4-((5-methyl-2-(thiophene-2-yl)-oxazole-4-yl)methoxy)-benzyl]-9H-carbazole-4-yloxy}-2-methyl-propionic acid], the IC50 is 545 nM. On the same count and under the same terms, to `COc1cc(Cn2c3ccccc3c3c(OC(C)(C)C(=O)O)cccc32)ccc1OCc1nc(-c2ccncc2)oc1C` [Example 9, 2-{9-[3-methoxy-4-((5-methyl-2-(pyridine-4-yl)-oxazole-4-yl)methoxy)-benzyl]-9H-carbazole-4-yloxy}-2-methyl-propionic acid] belongs 5140 nM; to `Cc1oc(-c2ccccc2)nc1COc1ccc(Cn2c3ccccc3c3c(OC(C)(C)C(=O)O)cccc32)cc1` [Example 13, 2-methyl-2-{9-[4-((5-methyl-2-phenyl-oxazole-4-yl)methoxy)-benzyl]-9H-carbazole-4-yloxy}propionic acid], 5870 nM. The same measure, in the same setting: then `COc1cc(Cn2c3ccccc3c3c(OC(C)(C)C(=O)O)cccc32)ccc1OCc1nc(-c2ccccc2)sc1C` [Example 15, 2-{9-[3-methoxy-4-((5-methyl-2-phenyl-thiazole-4-yl)methoxy)-benzyl]-9H-carbazole-4-yloxy}-2-methyl-propionic acid], with 5980 nM; and `COc1cc(Cn2c3ccccc3c3c(OCC(C)(C)C(=O)O)cccc32)ccc1OCc1nc(-c2ccccc2)oc1C` [Example 22, 3-{9-[3-methoxy-4-((5-methyl-2-phenyl-oxazole-4-yl)methoxy)-benzyl]-9H-carbazole-4-yloxy}-2,2-dimethyl-propionic acid], with 122 nM. Turning to `COc1cc(Cn2c3ccccc3c3c(OCC(C)(C)C(=O)O)cccc32)ccc1OCc1nc(-c2ccco2)oc1C` [Example 23, 3-{9-[4-((2-(furan-2-yl)-5-methyl-oxazole-4-yl)methoxy)-3-methoxy-benzyl]-9H-carbazole-4-yloxy}-2,2-dimethyl-propionic acid], the IC50 stood at 93 nM. Still for that read-out and setting: to `COc1cc(Cn2c3ccccc3c3c(OCC(C)(C)C(=O)O)cccc32)ccc1OCc1nc(-c2cccs2)oc1C` [Example 24, 3-{9-[3-methoxy-4-((5-methyl-2-(thiophene-2-yl)-oxazole-4-yl)methoxy)-benzyl]-9H-carbazole-4-yloxy}-2,2-dimethyl-propionic acid] belongs 71 nM; to `COc1cc(Cn2c3ccccc3c3c(OCC(C)(C)C(=O)O)cccc32)ccc1OCc1nc(-c2ccncc2)oc1C` [Example 25, 3-{9-[3-methoxy-4-((5-methyl-2-pyridine-4-yl-oxazole-4-yl)methoxy)-benzyl]-9H-carbazole-4-yloxy}-2,2-dimethyl-propionic acid], 430 nM. Same read-out and setting: to `COc1cc(Cn2c3ccccc3c3c(OC(C)(C)C(=O)[O-])cccc32)ccc1OCc1nc(-c2ccccc2)oc1C.[Na+]` [Example 28, sodium 2-{9-[3-methoxy-4-((5-methyl-2-phenyl-oxazole-4-yl)methoxy)-benzyl]-9H-carbazole-4-yloxy}-2-methyl-propionate] belongs 398 nM.

Regarding `CCC(Oc1cccc2c1c1ccccc1n2Cc1ccc(OCc2nc(-c3ccccc3)oc2C)c(OC)c1)C(=O)[O-].[Na+]` (centres unmarked) [Example 31], the IC50 amounted to 406 nM. Same read-out and setting: then `COc1cc(Cn2c3ccccc3c3c(OC(C)(C)C(=O)[O-])cccc32)ccc1OCc1nc(-c2cccs2)oc1C.[Na+]` [Example 32], with 422 nM; and `COc1cc(Cn2c3ccccc3c3c(OCC(C)(C)C(=O)[O-])cccc32)ccc1OCc1nc(-c2ccccc2)oc1C.[Na+]` [Example 34], with 85 nM.

The same assay, now with this note: at 10 μM test compound; CV-1 cells expressing human PPARγ and RXRα; pioglitazone as stimulant; read-out: Human PPARγ antagonist activities, Inhibition % at 10 μM.
Usually inhibition stands for the relative decrease from the control value, in per cent. As for `COc1cc(Cn2c3ccccc3c3c(OC(C)(C)C(=O)O)cccc32)ccc1OCc1sc(-c2ccccc2)nc1C` [Example 16, 2-{9-[3-methoxy-4-((4-methyl-2-phenyl-thiazole-5-yl)methoxy)-benzyl]-9H-carbazole-4-yloxy}-2-methyl-propionic acid], the inhibition at 10 µM came to 38.2%.
